In US7776570B2, “L-amino acid amide asymmetric hydrolase and DNA encoding the same” (Mitsubishi Gas Chemical Company, Inc., priority 2004, dated 2010):

Columns and labels:
[1] = test system: L-amino acid amide asymmetric hydrolase (transformant strain pMCA1/JM109 cells); assay: Asymmetric hydrolysis of racemic amino acid amides by using the transformant pMCA1/JM109; format: biochemical, Xanthobacter flavus; conditions: 0.1% substrate, 50 mM phosphate buffer pH 7.0, 30° C.
Experimental: A medium having a composition as shown in the following Table 3 was prepared, and 200 mL of the medium was poured into 1-L conical flask and sterilized. After that, the medium was added with 50 μg/mL ampicillin and then inoculated with the transformant strain pMCA1/JM109, followed by shaking culture at 37° C. for 15 hours. Subsequently, the culture solution was subjected to centrifugation, to thereby obtain living cells corresponding to 0.1 g of dry cells.
Enzymatic reactions were performed by using a culture solution of the transformant strain pMCA 1/JM109 which had been cultured in the same manner as in Example 7 and a racemic mixture of various amino acid amides as a substrate. Each of the substrate compound was dissolved into 50 mM phosphate buffer (pH 7.0) such that the substrate concentration was adjusted to 0.1%, and the substrate solution was added with the cells to perform an enzymatic reaction at 30° C. […] In any of the reactions, selectivity of hydrolysis is selective to an L-form, and optical purity of the produced L-amino acid was not less than 98% e.e.

[2] = test system: X. flavus living cells; assay: Asymmetric hydrolysis of 2-methylcysteine amide racemic mixture by using a wild-type microorganism; format: biochemical, Xanthobacter flavus; conditions: for 2-methylcysteine produced: 30° C., 24 hours, HPLC condition B; for optical purity of the L-amino acid: supernatant, HPLC condition A
Experimental: A medium having a composition as shown in the following Table 5 was prepared, and 200 mL of the medium was poured into a 1-L conical flask and sterilized. After that, X. flavus was inoculated thereto and shaking culture was performed at 30° C. for 170 hours. Subsequently, the culture solution was subjected to centrifugation, to thereby obtain living cells corresponding to 0.1 g of dry cells.
10.0 g (58.6 mmol) of racemic mixture of 2-methylcysteine amide hydrochloride was dissolved into 300 mL of 50 mM phosphate buffer (pH 7.0). After that, the mixture was poured into a 500-mL flask, which was added with an aqueous manganese chloride solution such that the concentration of a divalent Mn ion became 10 ppm, and further added with the living cells corresponding to 0.01 g of dry cells, followed by stirring culture at 30° C. for 24 hours under a nitrogen stream to allow a hydrolysis reaction to proceed. After completion of the reaction, the reaction solution was subjected to centrifugation to remove the cells, and the supernatant was analyzed under the HPLC condition B as shown in the following Table 6.
10 L of the culture solution obtained after culture in the medium composition in Comparative Example 1 was subjected to centrifugation, to thereby obtain living cells corresponding to 5 g of dry cells of X. flavus. 10.0 g (58.6 mmol) of a racemic mixture of 2-methylcysteine amide hydrochloride was dissolved into 300 mL of 50 mM phosphate buffer (pH 7.0). After that, the mixture was poured into 500-mL flask, which was added with an aqueous manganese chloride solution such that the concentration of a divalent Mn ion became 10 ppm, and further added with the living cells corresponding to 5 g of dry cells, followed by stirring culture at 30° C. for 24 hours under a nitrogen stream to allow a hydrolysis reaction to proceed. After completion of the reaction, the reaction solution was subjected to centrifugation to remove the cells therefrom, and the supernatant was analyzed under the HPLC condition B. As a result, it was confirmed that 28.2 mmol of 2-methylcysteine was produced. In addition, the supernatant was analyzed under the HPLC condition A, and as a result, the optical purity of the L-amino acid was not less than 98% e.e.
A biochemical asymmetric hydrolysis reaction was performed in the same manner as in Comparative Example 2 except that the aqueous manganese chloride solution was not added. The reaction was performed at 30° C. for 24 hours. After completion of the reaction, the reaction solution was subjected to centrifugation to remove the cells therefrom, and then the supernatant was analyzed under the HPLC condition B. As a result, it was confirmed that 13.9 mmol of 2-methylcysteine was produced. In addition, the supernatant was analyzed under the HPLC condition A, and as a result, the optical purity of the L-amino acid was not less than 98% e.e.

[3] = substrate weight/dry cell weight 0.01, reaction time 5 hr
[4] = substrate weight/dry cell weight 0.1, reaction time 24 hr
[5] = 5 g dry cells, no manganese chloride added
[6] = substrate weight/dry cell weight 0.01, reaction time 24 hr

NC(=O)C(N)c1ccccc1 (racemic) [Phenylglycine amide] gave a Reaction rate [1, 3] of 48.8%.
For CC(C)(S)[C@H](N)C(N)=O (racemic) [penicillamine amide], the Reaction rate [1, 3] was 44.9%.
In the case of NC(=O)[C@@H](N)Cc1ccccc1 (racemic) [Phenylalanine amide], the Reaction rate [1, 3] is reported as 47.8%.
Compound CC(C)(C)[C@H](N)C(N)=O (racemic) [t-leucine amide] has a Reaction rate [1, 4] of 44.4%.
For C[C@](N)(CS)C(N)=O.Cl (racemic) [2-methylcysteine amide, 2-methylcysteine amide hydrochloride], the 2-methylcysteine produced ([2]; 0.01 g dry cells, 58.6 mmol substrate, 10 ppm divalent Mn ion) was “no 2-methylcysteine as a product was observed”, the 2-methylcysteine produced ([2]; 5 g dry cells, 58.6 mmol substrate, 10 ppm divalent Mn ion) was 28.2 mmol and the “optical purity of the L-amino acid” value ([2]; 5 g dry cells, 10 ppm divalent Mn ion) was “not less than 98 % e.e”. For the same compound, the 2-methylcysteine produced [2, 5] was 13.9 mmol and the “optical purity of the L-amino acid” value [2, 5] was “not less than 98 % e.e”.
CC1(C)SCNC1C(N)=O (stereo not shown) [5,5-dimethylthiazolidin-4-carboxylate amide] was tested, and the Reaction rate [1, 4] was 47.0%.
For Allicin amide ethylene acetal, the Reaction rate [1, 6] was 44.3%.
CCC(N)C(N)=O (stereo not shown) [2-amino butyrate amide] was tested, and the Reaction rate ([1]; substrate weight/dry cell weight 0.1, reaction time 5 hr) was 49.2%.
CC(C)[C@H](N)C(N)=O (racemic) [Valine amide] showed a Reaction rate [1, 6] of 44.3%.
